Assay results from ChEMBL document CHEMBL2331301, “Structural analysis of the active sites of dihydrofolate reductase from two species of Candida uncovers ligand-induced conformational changes shared among species” (Bioorg Med Chem Lett, 2013).
In brackets after ≈: the same amount, converted by molar mass. Blank lines part the entries; values can stand above or below the molecule they belong to. Activity calls are given as the source filed them. No cut-off for these calls is given here.

What was measured:
Nakaseomyces glabratus [1] = assay: Binding affinity to Candida glabrata DHFR at 1 mM incubated for 2 hrs by crystallographic analysis in presence of 1 mM NADPH
[2] = Selectivity ratio of IC50 for human DHFR to Candida albicans DHFR
[3] = molecular target: T1, Dihydrofolate reductase (Candida albicans) (UniProt P22906); assay: Binding affinity to Candida albicans DHFR at 1 mM incubated for 2 hrs by crystallographic analysis in presence of 1 mM NADPH
T1 sequence (whole entry): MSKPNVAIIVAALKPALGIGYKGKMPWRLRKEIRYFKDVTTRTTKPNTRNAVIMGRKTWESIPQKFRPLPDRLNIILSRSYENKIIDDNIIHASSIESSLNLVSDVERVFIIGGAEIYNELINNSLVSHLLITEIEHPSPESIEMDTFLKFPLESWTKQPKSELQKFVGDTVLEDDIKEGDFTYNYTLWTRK

Dihydrofolate reductase [4] = molecular target: T2, Dihydrofolate reductase (Homo sapiens, UniProt P00374); assay: Inhibition of human DHFR
T2 sequence (P00374 whole entry): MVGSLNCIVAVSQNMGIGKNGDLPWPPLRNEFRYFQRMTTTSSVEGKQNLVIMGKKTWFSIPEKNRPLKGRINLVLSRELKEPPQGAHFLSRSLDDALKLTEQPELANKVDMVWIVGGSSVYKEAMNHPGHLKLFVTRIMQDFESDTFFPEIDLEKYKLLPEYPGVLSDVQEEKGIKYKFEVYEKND

Dihydrofolate reductase [5] = molecular target: T3, Dihydrofolate reductase (Candida albicans, UniProt P22906); assay: Inhibition of Candida albicans DHFR
T3 sequence (P22906 whole entry): T1 sequence (whole entry)

[6] = Inhibition of Candida glabrata DHFR; set-up: species or system Nakaseomyces glabratus
[7] = Selectivity ratio of IC50 for human DHFR to Candida glabrata DHFR
Candida albicans = assay: Antifungal activity against Candida albicans; type: functional
Nakaseomyces glabratus [8] = assay: Antifungal activity against Candida glabrata; type: functional

Compound: CCc1nc(N)nc(N)c1C#CCc1cc(OC)cc(-c2ccc3c(c2)OCCO3)c1
Activity (Nakaseomyces glabratus [1]): Active
Ratio IC50 [2]: 1.8
Activity [3]: Active
IC50 (Dihydrofolate reductase [4]): 140 nM
IC50 (Dihydrofolate reductase [5]): 78 nM
IC50 [6]: 19 nM
Ratio IC50 [7]: 7.4

Compound: COc1cc(C(C)(C)C#Cc2c(C)nc(N)nc2N)cc(OC)c1OC
Ratio IC50 [2]: 9
IC50 (Dihydrofolate reductase [5]): 33 nM
IC50 [6]: 11 nM
Ratio IC50 [7]: 26

Compound: CCc1nc(N)nc(N)c1C#CC(C)c1cc(OC)cc(N2CCOCC2)c1 (configuration not stated)
Activity (Nakaseomyces glabratus [1]): Active
Ratio IC50 [2]: 11
IC50 (Dihydrofolate reductase [4]): 250 nM
IC50 (Dihydrofolate reductase [5]): 23 nM
IC50 [6]: 22 nM
Ratio IC50 [7]: 11

Compound: CCc1nc(N)nc(N)c1C#CCc1cc(OC)cc(-c2cccc3cnccc23)c1
Ratio IC50 [2]: 0.84
IC50 (Dihydrofolate reductase [4]): 60 nM
IC50 (Dihydrofolate reductase [5]): 71 nM
IC50 [6]: 16 nM
Ratio IC50 [7]: 3.8

Compound: CCc1nc(N)nc(N)c1C#CCc1cc(OC)ccc1OC
IC50 [6]: 8.2 nM

Results, then the molecule that gave them:

Ratio IC50 [2]: 25
IC50 (Dihydrofolate reductase [5]): 61 nM
IC50 [6]: 97 nM
Ratio IC50 [7]: 15
Compound: COc1cc(-c2ccncc2)cc(C(C)C#Cc2c(C)nc(N)nc2N)c1 (configuration not stated)

Ratio IC50 [2]: 2.6
IC50 (Dihydrofolate reductase [4]): 45 nM
IC50 (Dihydrofolate reductase [5]): 17 nM
IC50 [6]: 11 nM
Ratio IC50 [7]: 4.1
Compound: CCc1nc(N)nc(N)c1C#CC(C)c1cc(OC)cc(-c2cccc3cnccc23)c1 (configuration not stated)

Activity (Nakaseomyces glabratus [1]): Active
Ratio IC50 [2]: 22
Activity [3]: Active
IC50 (Dihydrofolate reductase [5]): 60 nM
IC50 [6]: 89 nM
Ratio IC50 [7]: 15
Compound: CCc1nc(N)nc(N)c1C#CC(C)c1cc(OC)cc(-c2ccncc2)c1 (configuration not stated)

MIC (Candida albicans): 1.5 µg/mL (≈ 4.03 µM)
MIC (Nakaseomyces glabratus [8]): 1.5 µg/mL (≈ 4.03 µM)
Activity (Nakaseomyces glabratus [1]): Active
Activity [3]: Active
IC50 [6]: 0.6 nM
Compound: COc1cc(-c2ccc(C)cc2)cc(C(C)C#Cc2c(C)nc(N)nc2N)c1 (configuration not stated)

Ratio IC50 [2]: 19
IC50 (Dihydrofolate reductase [5]): 21 nM
IC50 [6]: 20 nM
Ratio IC50 [7]: 20
Compound: COc1cc(C(C)C#Cc2c(C)nc(N)nc2N)cc(N2CCOCC2)c1 (configuration not stated)

Ratio IC50 [2]: 11
IC50 (Dihydrofolate reductase [4]): 260 nM
IC50 (Dihydrofolate reductase [5]): 23 nM
IC50 [6]: 18 nM
Ratio IC50 [7]: 14
Compound: CCc1nc(N)nc(N)c1C#CC(C)c1cc(OC)cc(-c2ccc3c(c2)OCCO3)c1 (configuration not stated)
